Measurements reported in ChEMBL document CHEMBL5325456, “5-(4-Hydroxyphenyl)-3H-1,2-dithiole-3-thione derivatives of brefeldin A: Design, synthesis and cytotoxicity in MDA-MB-231 human breast cancer cells” (Bioorg Med Chem, 2023).

Key:
A-375 = test: Antiproliferative activity against human A-375 cells assessed as reduction in cell viability incubated for 48 hrs by CCk-8 assay; type: functional, cell-based; conditions: A-375, 48 h
MDA-MB-231 [1] = test: Induction of cell cycle arrest in human MDA-MB-231 cells assessed as accumulation of cells at G2 phase at 0.165 uM incubated for 48 hrs by flow cytometry analysis (reference value: 16.05 %); type: functional
MDA-MB-231 [2] = test: Antiproliferative activity against human MDA-MB-231 cells assessed as reduction in cell viability incubated for 48 hrs by CCk-8 assay; type: functional, cell-based; conditions: MDA-MB-231, 48 h
MDA-MB-231 [3] = test: Induction of apoptosis in human MDA-MB-231 cells assessed as late apoptotic cells at 0.33 uM incubated for 48 hrs by Annexin-V/FITC-PI staining based flow cytometry analysis (reference value: 2.34 %); type: functional
MDA-MB-231 [4] = test: Inhibition of cell migration in human MDA-MB-231 cells assessed as wound healing rate at 82.5 nM measured for 24 hrs by scratch wound healing assay (Rvb= 230.22 +/- 32.21 %); type: functional; set-up: scale not given: the % may be the effect or the level left
MDA-MB-231 [5] = test: Induction of apoptosis in human MDA-MB-231 cells assessed as late apoptotic cells at 82.5 nM incubated for 48 hrs by Annexin-V/FITC-PI staining based flow cytometry analysis (reference value: 2.34 %); type: functional
HeLa = test: Antiproliferative activity against human HeLa cells assessed as reduction in cell viability incubated for 48 hrs by CCk-8 assay; type: functional, cell-based
MDA-MB-231 [6] = test: Inhibition of cell migration in human MDA-MB-231 cells assessed as wound healing rate at 82.5 nM measured immediately by scratch wound healing assay (Rvb= 871.53 +/- 3.02 %); type: functional; set-up: scale not given: the % may be the effect or the level left
MDA-MB-231 [7] = test: Induction of apoptosis in human MDA-MB-231 cells assessed as late apoptotic cells at 0.165 uM incubated for 48 hrs by Annexin-V/FITC-PI staining based flow cytometry analysis (reference value: 2.34 %); type: functional
MDA-MB-231 [8] = test: Induction of DNA damage in human MDA-MB-231 cells assessed as tail DNA at 82.5 nM incubated for 48 hrs by Comet assay (reference value: 0.007 %); type: functional
[9] = Selectivity index, ratio of IC50 for antiproliferative activity against human L02 cells to IC50 for antiproliferative activity against human MDA-MB-231 cells; type: toxicity, cell-based; conditions: L02 cells and MDA-MB-231 cells, read-out: Ratio IC50
MDA-MB-231 [10] = test: Induction of apoptosis in human MDA-MB-231 cells assessed as necrotic cells at 0.165 uM incubated for 48 hrs by Annexin-V/FITC-PI staining based flow cytometry analysis (reference value: 0.99 %); type: functional
MDA-MB-231 [11] = test: Induction of apoptosis in human MDA-MB-231 cells assessed as viable cells at 0.33 uM incubated for 48 hrs by Annexin-V/FITC-PI staining based flow cytometry analysis (reference value: 93.74 %); type: functional; conditions: read-out: Activity
MDA-MB-231 [12] = test: Induction of apoptosis in human MDA-MB-231 cells assessed as viable cells at 0.165 uM incubated for 48 hrs by Annexin-V/FITC-PI staining based flow cytometry analysis (reference value: 93.74 %); type: functional; conditions: read-out: Activity
MDA-MB-231 [13] = test: Induction of cell cycle arrest in human MDA-MB-231 cells assessed as accumulation of cells at G2 phase at 0.33 uM incubated for 48 hrs by flow cytometry analysis (reference value: 16.05 %); type: functional
MDA-MB-231 [14] = test: Inhibition of cell migration in human MDA-MB-231 cells assessed as wound healing rate at 0.33 uM measured immediately by scratch wound healing assay (Rvb= 871.53 +/- 3.02 %); type: functional; set-up: scale not given: the % may be the effect or the level left
A549 = test: Antiproliferative activity against human A549 cells assessed as reduction in cell viability incubated for 48 hrs by CCk-8 assay; type: functional, cell-based; conditions: A549, 48 h
DU-145 = test: Antiproliferative activity against human DU-145 cells assessed as reduction in cell viability incubated for 48 hrs by CCk-8 assay; type: functional, cell-based; conditions: DU-145, 48 h
MDA-MB-231 [15] = test: Induction of apoptosis in human MDA-MB-231 cells assessed as necrotic cells at 0.33 uM incubated for 48 hrs by Annexin-V/FITC-PI staining based flow cytometry analysis (reference value: 0.99 %); type: functional
MDA-MB-231 [16] = test: Induction of cell cycle arrest in human MDA-MB-231 cells assessed as accumulation of cells at G2 phase at 82.5 nM incubated for 48 hrs by flow cytometry analysis (reference value: 16.05 %); type: functional
MDA-MB-231 [17] = test: Inhibition of cell migration in human MDA-MB-231 cells assessed as wound healing rate at 0.33 uM measured for 24 hrs by scratch wound healing assay (Rvb= 230.22 +/- 32.21 %); type: functional; set-up: scale not given: the % may be the effect or the level left
MDA-MB-231 [18] = test: Induction of apoptosis in human MDA-MB-231 cells assessed as early apoptotic cells at 82.5 nM incubated for 48 hrs by Annexin-V/FITC-PI staining based flow cytometry analysis (reference value: 2.93 %); type: functional
MDA-MB-231 [19] = test: Induction of cell cycle arrest in human MDA-MB-231 cells assessed as accumulation of cells at G1 phase at 0.33 uM incubated for 48 hrs by flow cytometry analysis (reference value: 47.44 %); type: functional
MDA-MB-231 [20] = test: Inhibition of cell migration in human MDA-MB-231 cells assessed as wound healing rate at 0.165 uM measured for 24 hrs by scratch wound healing assay (Rvb= 230.22 +/- 32.21 %); type: functional; set-up: scale not given: the % may be the effect or the level left
MDA-MB-231 [21] = test: Inhibition of cell invasion in human MDA-MB-231 cells incubated for 24 hrs by crystal violet staining based transwell assay; type: functional; conditions: dose 82.5-330 nM
Cell membrane = test: Induction of mitochondrial membrane potential loss in human MDA-MB-231 cells assessed as proportion of MMP decreased cells at 0.165 uM and measured for 48 hrs by JC-1 staining based flow cytometry assay (reference value: 4.40%); type: subcellular; set-up: scale not given: the % may be the effect or the level left
MDA-MB-231 [22] = test: Induction of apoptosis in human MDA-MB-231 cells assessed as early apoptotic cells at 0.33 uM incubated for 48 hrs by Annexin-V/FITC-PI staining based flow cytometry analysis (reference value: 2.93 %); type: functional
MDA-MB-231 [23] = test: Induction of cell cycle arrest in human MDA-MB-231 cells assessed as accumulation of cells at S phase at 0.33 uM incubated for 48 hrs by flow cytometry analysis (reference value: 36.51%); type: functional
MDA-MB-231 [24] = test: Induction of cell cycle arrest in human MDA-MB-231 cells assessed as accumulation of cells at G1 phase at 82.5 nM incubated for 48 hrs by flow cytometry analysis (reference value: 47.44 %); type: functional
MDA-MB-231 [25] = test: Induction of apoptosis in human MDA-MB-231 cells assessed as viable cells at 82.5 nM incubated for 48 hrs by Annexin-V/FITC-PI staining based flow cytometry analysis (reference value: 93.74 %); type: functional; conditions: read-out: Activity
MDA-MB-231 [26] = test: Induction of apoptosis in human MDA-MB-231 cells assessed as necrotic cells at 82.5 nM incubated for 48 hrs by Annexin-V/FITC-PI staining based flow cytometry analysis (reference value: 0.99 %); type: functional
MDA-MB-231 [27] = test: Induction of apoptosis in human MDA-MB-231 cells assessed as early apoptotic cells at 0.165 uM incubated for 48 hrs by Annexin-V/FITC-PI staining based flow cytometry analysis (reference value: 2.93 %); type: functional

## C[C@H]1CCC/C=C/[C@@H]2C[C@H](O)C[C@H]2[C@H](OC(=O)CCCC(=O)OCCOc2ccc(-c3cc(=S)ss3)cc2)/C=C/C(=O)O1
A-375
  IC50: 1820 nM
MDA-MB-231 [1]
  Activity: 9.52%
MDA-MB-231 [2]
  IC50: 330 nM
MDA-MB-231 [3]
  Activity: 31.61%
MDA-MB-231 [4]
  Activity: 383.42%
MDA-MB-231 [5]
  Activity: 5.82%
HeLa
  IC50: 850 nM
MDA-MB-231 [6]
  Activity: 832.33%
MDA-MB-231 [7]
  Activity: 16.31%
MDA-MB-231 [8]
  Activity: 20.49%
[9]
  selectivity ratio: 5.3
MDA-MB-231 [10]
  Activity: 1.87%
MDA-MB-231 [11]
  viability at 0.33 µM: 43.2%
MDA-MB-231 [12]
  viability at 0.165 µM: 71.7%
MDA-MB-231 [13]
  Activity: 7.13%
MDA-MB-231 [14]
  Activity: 844.92%
A549
  IC50: 580 nM
DU-145
  IC50: 690 nM
MDA-MB-231 [15]
  Activity: 4.11%
MDA-MB-231 [16]
  Activity: 13.5%
MDA-MB-231 [17]
  Activity: 610.67%
MDA-MB-231 [18]
  Activity: 10.01%
MDA-MB-231 [19]
  Activity: 69.88%
MDA-MB-231 [20]
  Activity: 465.92%
MDA-MB-231 [21]
  inhibition: Dose-Dependent Effect
Cell membrane
  Activity: 31.7%
MDA-MB-231 [22]
  Activity: 21.05%
MDA-MB-231 [23]
  Activity: 22.99%
MDA-MB-231 [24]
  Activity: 56.27%
MDA-MB-231 [25]
  viability at 0.0825 µM: 82%
MDA-MB-231 [26]
  Activity: 2.12%
MDA-MB-231 [27]
  Activity: 10.14%
